What was measured:
Assay in all cases: in vitro antibacterial evaluation, MIC by broth dilution
Assay type in all cases: cell-based
[1] = test system: Escherichia coli; details: 18 hours at 35° C.
Procedure, shortened: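 Broth dilution MIC per NCCLS M7-A2 in Mueller-Hinton II medium, inoculum 5×10^5 CFU/mL, antibiotic range 64-0.06 μg/mL. MIC taken as lowest concentration inhibiting growth.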

[2] = test system: Enterococcus sp.; details: broth dilution, 18 hours at 35° C.
Procedure, shortened: (§1)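 Broth dilution per NCCLS M7-A2 in Mueller-Hinton II medium, inoculum 5×10^5 CFU/mL, antibiotic range 64-0.06 μg/mL. MIC taken as lowest concentration inhibiting growth; Gram-positive panel includes recent clinical isolates resistant to methicillin, penicillin and/or vancomycin.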

[3] = test system: Streptococcus sp.; details: broth dilution, 18 hours at 35° C.
Procedure, shortened: as §1

[4] = test system: Staphylococcus sp.; details: broth dilution, 18 hours at 35° C.
Procedure, shortened: as §1

“Tri-N-[(phenylmethoxy)carbonyl]-cyclo[glycl-β-methylphenylalanyltyrosyl-3-(2-iminoimidazolidin-4-yl)seryl-3-(3-hexopyranosyl-2-iminoimidazolidin-4-yl)serylseryl] [Example 89]” was tested. Which “MIC Escherichia coli (ATCC 25922)” value [1] did it give?
Its value is >64 µg/mL.

What about the “MIC Escherichia coli (GC 4559)” value [1] of the same substance?
The value was >64 µg/mL.

And the “MIC Escherichia coli (GC 4560)” value [1]?
The value was 32 µg/mL.

And the “MIC Enterococcus avium (GC 4558)” value ([2]; Enterococcus avium (GC 4558))?
The value was 32 µg/mL.

And the “MIC Enterococcus faecalis (ATCC 29212)” value ([2]; Enterococcus faecalis (ATCC 29212))?
The value was 64 µg/mL.

What about the “MIC Enterococcus faecalis (GC 4552)” value ([2]; Enterococcus faecalis (GC 4552)) of the same substance?
The value was 64 µg/mL.

What about the “MIC Enterococcus faecalis (GC 4553)” value ([2]; Enterococcus faecalis (GC 4553)) of the same substance?
The value was 64 µg/mL.

And the “MIC Enterococcus faecalis (GC 4554)” value ([2]; Enterococcus faecalis (GC 4554))?
Its value is 64 µg/mL.

And the “MIC Enterococcus faecalis (GC 6189)” value ([2]; Enterococcus faecalis (GC 6189))?
The value was 64 µg/mL.

What about the “MIC Enterococcus faecium (GC 2243)” value ([2]; Enterococcus faecium (GC 2243)) of the same substance?
The value was 64 µg/mL.

And the “MIC Enterococcus faecium (GC 4556)” value ([2]; Enterococcus faecium (GC 4556))?
The value was 64 µg/mL.

What about the “MIC Enterococcus faecium (GC 4557)” value ([2]; Enterococcus faecium (GC 4557)) of the same substance?
The value was 32 µg/mL.

And the “MIC Enterococcus avium (GC 4558)” value [2]?
The value was 32 µg/mL.

And the “MIC Enterococcus faecalis (ATCC 29212)” value [2]?
Its value is 64 µg/mL.

What about the “MIC Enterococcus faecalis (GC 2242)” value [2] of the same substance?
Its value is 64 µg/mL.

What about the “MIC Enterococcus faecalis (GC 2691)” value [2] of the same substance?
Its value is 64 µg/mL.

What about the “MIC Enterococcus faecalis (GC 3059)” value [2] of the same substance?
The value was 64 µg/mL.

What about the “MIC Enterococcus faecalis (GC 4552)” value [2] of the same substance?
The value was 64 µg/mL.

And the “MIC Enterococcus faecalis (GC 4553)” value [2]?
The value was 64 µg/mL.

And the “MIC Enterococcus faecalis (GC 4554)” value [2]?
The value was 64 µg/mL.

What about the “MIC Enterococcus faecalis (GC 6189)” value [2] of the same substance?
Its value is 64 µg/mL.

And the “MIC Enterococcus faecium (GC 2243)” value [2]?
The value was 64 µg/mL.

And the “MIC Enterococcus faecium (GC 4556)” value [2]?
The value was 64 µg/mL.

And the “MIC Enterococcus faecium (GC 4557)” value [2]?
Its value is 32 µg/mL.

What about the “MIC Enterococcus faecalis (GC 2242)” value ([2]; strain GC 2242) of the same substance?
Its value is 64 µg/mL.

And the “MIC Enterococcus faecalis (GC 2691)” value ([2]; strain GC 2691)?
The value was 64 µg/mL.

What about the “MIC Enterococcus faecalis (GC 3059)” value ([2]; strain GC 3059) of the same substance?
Its value is 64 µg/mL.

What about the “MIC Streptococcus agalactiae (GC 4564)” value [3] of the same substance?
Its value is 32 µg/mL.

What about the “MIC Streptococcus pneumoniae (ATCC 6301)” value [3] of the same substance?
The value was 16 µg/mL.

What about the “MIC Streptococcus pneumoniae (GC 1894)” value [3] of the same substance?
The value was 4 µg/mL.

And the “MIC Streptococcus pneumoniae (GC 4565)” value [3]?
The value was 8 µg/mL.

And the “MIC Streptococcus pyogenes (GC 4563)” value [3]?
The value was 32 µg/mL.

What about the “MIC Streptococcus pneumoniae (ATCC 6301)” value ([3]; strain ATCC 6301) of the same substance?
Its value is 16 µg/mL.

And the “MIC Streptococcus pneumoniae (GC 1894)” value ([3]; strain GC 1894)?
Its value is 4 µg/mL.

What about the “MIC Streptococcus pyogenes (GC 4563)” value ([3]; strain GC 4563) of the same substance?
The value was 32 µg/mL.

What about the “MIC Streptococcus agalactiae (GC 4564)” value ([3]; strain GC 4564) of the same substance?
Its value is 32 µg/mL.

What about the “MIC Streptococcus pneumoniae (GC 4565)” value ([3]; strain GC 4565) of the same substance?
Its value is 8 µg/mL.

What about the “MIC Coagulase Negative Staphylococcus (GC 4547)” value [4] of the same substance?
The value was 32 µg/mL.

And the “MIC Coagulase Negative Staphylococcus (GC 4548)” value [4]?
Its value is 64 µg/mL.

And the “MIC Coagulase Negative Staphylococcus (GC 4549)” value [4]?
The value was 64 µg/mL.

What about the “MIC Coagulase Negative Staphylococcus (GC 4551)” value [4] of the same substance?
The value was 64 µg/mL.

What about the “MIC Coagulase Negative Staphylococcus (GC 6257)” value [4] of the same substance?
The value was 32 µg/mL.

What about the “MIC Staphylococcus aureus-SMITH (GC 4543)” value [4] of the same substance?
The value was 64 µg/mL.

And the “MIC Staphylococcus haemolyticus (GC 4546)” value [4]?
Its value is 32 µg/mL.

And the “MIC Staphylococcus aureus (ATCC 29213)” value ([4]; strain ATCC 29213)?
Its value is 64 µg/mL.

And the “MIC Staphylococcus aureus (GC 1131)” value ([4]; strain GC 1131)?
The value was 64 µg/mL.

What about the “MIC Staphylococcus aureus (GC 3051)” value ([4]; strain GC 3051) of the same substance?
The value was 64 µg/mL.

What about the “MIC Staphylococcus aureus (GC 3053)” value ([4]; strain GC 3053) of the same substance?
Its value is 64 µg/mL.

What about the “MIC Staphylococcus aureus (GC 4541)” value ([4]; strain GC 4541) of the same substance?
The value was 64 µg/mL.

What about the “MIC Staphylococcus aureus (GC 4542)” value ([4]; strain GC 4542) of the same substance?
The value was 64 µg/mL.

And the “MIC Staphylococcus aureus-SMITH (GC 4543)” value ([4]; strain GC 4543)?
The value was 64 µg/mL.

And the “MIC Staphylococcus aureus (GC 4544)” value ([4]; strain GC 4544)?
The value was 64 µg/mL.

And the “MIC Staphylococcus aureus (GC 4545)” value ([4]; strain GC 4545)?
Its value is 64 µg/mL.

And the “MIC Staphylococcus haemolyticus (GC 4546)” value ([4]; strain GC 4546)?
Its value is 32 µg/mL.

What about the “MIC Coagulase Negative Staphylococcus (GC 4547)” value ([4]; strain GC 4547) of the same substance?
The value was 32 µg/mL.

What about the “MIC Coagulase Negative Staphylococcus (GC 4548)” value ([4]; strain GC 4548) of the same substance?
The value was 64 µg/mL.

And the “MIC Coagulase Negative Staphylococcus (GC 4549)” value ([4]; strain GC 4549)?
The value was 64 µg/mL.

What about the “MIC Coagulase Negative Staphylococcus (GC 4551)” value ([4]; strain GC 4551) of the same substance?
The value was 64 µg/mL.

And the “MIC Coagulase Negative Staphylococcus (GC 6257)” value ([4]; strain GC 6257)?
The value was 32 µg/mL.

From patent US6914045B2, “Glycopeptide antibiotics” (Wyeth Holdings Corporation, priority 2001, dated 2005)
